Converted amounts (≈) assume the structure as drawn. Read-outs that look alike come from different tables or passages of the source.
Tests used:
A. baumannii ATCC 19606 = assay: MIC, selected panel of bacterial strains (Example 5); type: cell-based, Acinetobacter baumannii
[1] = test system: S. aureus BAA-1556 (USA300-Type) (MRSA, FQ-R); assay: as above; type: cell-based, Staphylococcus aureus; settings: Staphylococcus aureus, read-out: MICs against Gram positive bacteria S. aureus BAA-1556 (USA300-Type) (MRSA, FQ-R)
S. aureus ATCC 25923 = assay: as above; type: cell-based, Staphylococcus aureus
[2] = test system: S. aureus ATCC 43300 (MRSA, FQ-S); assay: as above; type: cell-based, Staphylococcus aureus; settings: Staphylococcus aureus, read-out: MICs against Gram positive bacteria S. aureus ATCC 43300 (MRSA, FQ-S)
E. coli ATCC 25922 = assay: as above; type: cell-based, Escherichia coli; settings: Escherichia coli, ATCC25922, read-out: MICs against Gram negative bacteria E. coli ATCC 25922
B. thailandensis = type: cell-based, Burkholderia thailandensis
B. thailandensis E264 = assay: microbe, parasite or virus in culture; type: cell-based, Burkholderia thailandensis; settings: Burkholderia thailandensis, E264, read-out: MICs against Gram negative bacteria B. thailandensis E264
K. pneumoniae ATCC 33495 = assay: MIC on K. pneumoniae (Example 5); type: cell-based, Klebsiella pneumoniae; settings: sensitive strain
Procedure: (§1) MIC Values for all compounds were measured against a selection of bacterial strains. The MICs of 4-oxoquinolizines against a selection of Gram-negative and Gram-positive bacterial strains are shown in Table 13 in comparison with known antibiotics.

[3] = test system: K. pneumoniae BAA-2146 (NDM-1, FQ-R); assay: MIC on K. pneumoniae (Example 5); type: cell-based, Klebsiella pneumoniae; settings: quinolone-resistant strain
Procedure: as §1

[4] = Acinetobacter baumannii, ATCC19606, read-out: MICs against Gram negative bacteria A. baumannii ATCC 19606
[5] = Staphylococcus aureus, ATCC25923, read-out: MICs against Gram positive bacteria S. aureus ATCC 25923

| Compound | MIC (S. aureus ATCC 25923; [5]) | MIC [2] | MIC (E. coli ATCC 25922) | further results |
| --- | --- | --- | --- | --- |
| Cc1c(-c2cccc(O)c2)ccn2c(=O)c(C(=O)[O-])cc(C3CC3)c12.[K+] [Compound 56K salt, potassium 1-cyclopropyl-8-(3-hydroxyphenyl)-9-methyl-4-oxo-4H-quinolizine-3-carboxylate] |  |  |  | MIC (A. baumannii ATCC 19606; [4]): 0.125 µg/mL; MIC [1]: 0.125 µg/mL |
| Cc1c(-c2ccc3sc(N)nc3c2)ccn2c(=O)c(C(=O)[O-])cc(C3CC3)c12.[K+] [Compound 73K salt, potassium 8-(2-aminobenzo[d]thiazol-5-yl)-1-cyclopropyl-9-methyl-4-oxo-4H-quinolizine-3-carboxylate] | 50 µg/mL | 50 µg/mL |  | MIC (A. baumannii ATCC 19606; [4]): 0.125 µg/mL |
| Cc1c(-c2ccc3c(cnn3C)c2)ccn2c(=O)c(C(=O)[O-])cc(C3CC3)c12.[K+] [Compound 81K salt, potassium 8-(1-methyl-1H-indazol-5-yl)-1-cyclopropyl-9-methyl-4-oxo-4H-quinolizine-3-carboxylate] | 50 µg/mL | 50 µg/mL |  | MIC (A. baumannii ATCC 19606; [4]): 0.125 µg/mL |
| CC(=O)NCc1ccc(-c2ccn3c(=O)c(C(=O)[O-])cc(C4CC4)c3c2C)cc1.[K+] [Compound 64K salt, potassium 8-(4-(Acetamidomethyl)phenyl)-1-cyclopropyl-9-methyl-4-oxo-4H-quinolizine-3-carboxylate] |  |  | 0.125 µg/mL |  |
| Cc1c(-c2ccc3[nH]nc(C4CC4)c3c2)ccn2c(=O)c(C(=O)[O-])cc(C3CC3)c12.[K+] [Compound 71K salt, potassium 8-(3-cyclopropyl-1H-indazol-5-yl)-1-cyclopropyl-9-methyl-4-oxo-4H-quinolizine-3-carboxylate] | 50 µg/mL | 50 µg/mL | 0.125 µg/mL | MIC [1]: 0.125 µg/mL |
| C[C@H]1c2cccc(O)c2C(=O)C2=C(O)[C@]3(O)C(=O)C(C(N)=O)=C(O)[C@@H](N(C)C)[C@@H]3[C@@H](O)[C@@H]21 [Doxycycline, reference compound] |  |  |  | MIC (A. baumannii ATCC 19606; Acinetobacter baumannii, ATCC19606; read-out: MICs against Gram negative bacteria A. baumannii ATCC 19606): 0.125 µg/mL (≈ 0.281 µM); MIC (S. aureus ATCC 25923; Staphylococcus aureus, ATCC25923; read-out: MICs against Gram positive bacteria S. aureus ATCC 25923): 0.125 µg/mL (≈ 0.281 µM) |
| Cc1c(-c2ccc(O)cc2)c(F)cn2c(=O)c(C(=O)[O-])cc(C3CC3)c12.[K+] [Compound 61K salt, potassium 8-(4-hydroxyphenyl)-1-cyclopropyl-7-fluoro-9-methyl-4-oxo-4H-quinolizine-3-carboxylate] | 50 µg/mL | < 0.004 µg/mL |  | MIC (A. baumannii ATCC 19606; [4]): 0.125 µg/mL |
| Cc1c(-c2ccc(O)c(F)c2)ccn2c(=O)c(C(=O)[O-])cc(C3CC3)c12.[K+] [Compound 70K salt, potassium 8-(3-fluoro-4-hydroxyphenyl)-1-cyclopropyl-9-methyl-4-oxo-4H-quinolizine-3-carboxylate] | 50 µg/mL | 50 µg/mL |  | MIC (A. baumannii ATCC 19606; [4]): 0.125 µg/mL |
| Cc1n[nH]c2ccc(-c3ccn4c(=O)c(C(=O)[O-])cc(C5CC5)c4c3C)cc12.[K+] [Compound 80K salt, potassium 8-(3-methyl-1H-indazol-5-yl)-1-cyclopropyl-9-methyl-4-oxo-4H-quinolizine-3-carboxylate] | 50 µg/mL | 50 µg/mL |  | MIC [1]: 0.125 µg/mL |
| Cc1cn2c(=O)c(C(=O)[O-])cc(C3CC3)c2c(C)c1-c1ccc(N)nc1.[K+] [Compound 87K salt, potassium 8-(6-amino-pyridin-3-yl)-1-cyclopropyl-7,9-dimethyl-4-oxo-4H-quinolizine-3-carboxylate] |  |  | 0.125 µg/mL |  |
| 8-(4-amino-3-ethyl-5-methyl- phenyl)-1-cyclopropyl-9- methyl-4-oxo-quinolizine-3- carboxylic acid [Compound 16] |  |  |  | MIC90 B. thailandensis (B. thailandensis): <0.048 µg/mL |
| Cc1c(-c2ccc3cn[nH]c3c2)ccn2c(=O)c(C(=O)[O-])cc(C3CC3)c12.[K+] [Compound 83K salt, potassium 8-(1H-indazol-6-yl)-1-cyclopropyl-9-methyl-4-oxo-4H-quinolizine-3-carboxylate] | 50 µg/mL | 50 µg/mL |  | MIC (B. thailandensis E264): 0.125 µg/mL |
| Cc1c(-c2ccc3[nH]ncc3c2)ccn2c(=O)c(C(=O)[O-])cc(C3CC3)c12.[K+] [Compound 35K salt, potassium 8-(1H-indazol-5-yl)-1-cyclopropyl-9-methyl-4-oxo-4H-quinolizine-3-carboxylate] |  |  |  | MICs K. pneumoniae ATCC 33495 (K. pneumoniae ATCC 33495): 0.125 µg/mL; MICs K. pneumoniae BAA-2146 (NDM-1, FQ-R) [3]: >8 µg/mL |
| CNc1ccc(-c2ccn3c(=O)c(C(=O)[O-])cc(C4CC4)c3c2C)cc1C.[K+] [Compound 69K salt, potassium 8-(3-methyl-4-(methylamino)phenyl)-1-cyclopropyl-9-methyl-4-oxo-4H-quinolizine-3-carboxylate] | 50 µg/mL | 50 µg/mL | 0.125 µg/mL |  |
| Cc1c(-c2cc(F)c(N)cc2F)ccn2c(=O)c(C(=O)[O-])cc(C3CC3)c12.[K+] [Compound 2K salt, potassium 8-(4-amino-2,5-difluoro-phenyl)-1-cyclopropyl-9-methyl-4-oxo-4H-quinolizine-3-carboxylate] |  |  |  | MIC (K. pneumoniae ATCC 33495; Klebsiella pneumoniae, ATCC33495, read-out: MICs K. pneumoniae ATCC 33495): 0.25 µg/mL |
| Cc1c(-c2ccc(CN)s2)ccn2c(=O)c(C(=O)[O-])cc(C3CC3)c12.[K+] [Compound 13K salt, potassium 8-(5-(aminomethyl)thiophen-2-yl)-1-cyclopropyl-9-methyl-4-oxo-4H-quinolizine-3-carboxylate] |  |  |  | MIC (A. baumannii ATCC 19606; [4]): 0.125 µg/mL |
| COc1c(-c2ccc(N)nc2)ccn2c(=O)c(C(=O)[O-])cc(C3CC3)c12.[K+] [Compound 89K salt, potassium 8-(6-amino-pyridin-3-yl)-1-cyclopropyl-9-methoxy-4-oxo-4H-quinolizine-3-carboxylate] |  |  | 0.125 µg/mL |  |
| Cc1c(-c2ccc(N)nc2)ccn2c(=O)c(C(=O)[O-])cc(C3CC3)c12.[K+] [Compound 33K salt, potassium 8-(6-amino-pyridin-3-yl)-1-cyclopropyl-9-methyl-4-oxo-4H-quinolizine-3-carboxylate] |  |  |  | MICs K. pneumoniae ATCC 33495 (K. pneumoniae ATCC 33495): 0.064 µg/mL; MICs K. pneumoniae BAA-2146 (NDM-1, FQ-R) [3]: >8 µg/mL |
| Cc1cc(-c2ccn3c(=O)c(C(=O)[O-])cc(C4CC4)c3c2C)cnc1N.[K+] [Compound 79K salt, potassium 8-(6-amino-5-methylpyridin-3-yl)-1-cyclopropyl-9-methyl-4-oxo-4H-quinolizine-3-carboxylate] | 50 µg/mL | 50 µg/mL |  | MIC [1]: 0.125 µg/mL |
| CNc1ccc(-c2ccn3c(=O)c(C(=O)[O-])cc(C4CC4)c3c2C)cn1.[K+] [Compound 78K salt, potassium 8-(6-(methylamino)pyridin-3-yl)-1-cyclopropyl-9-methyl-4-oxo-4H-quinolizine-3-carboxylate] |  |  |  | MIC (A. baumannii ATCC 19606; [4]): 0.125 µg/mL; MIC [1]: 0.125 µg/mL |
| Cc1c(-c2ccc3c(c2)C(=O)NC3)ccn2c(=O)c(C(=O)[O-])cc(C3CC3)c12.[K+] [Compound 68K salt, potassium 8-(3-oxoisoindolin-5-yl)-1-cyclopropyl-9-methyl-4-oxo-4H-quinolizine-3-carboxylate] | 50 µg/mL | 50 µg/mL |  |  |
| COc1cc(-c2ccn3c(=O)c(C(=O)[O-])cc(C4CC4)c3c2C)ccc1O.[K+] [Compound 66K salt, potassium 8-(4-hydroxy-3-methoxyphenyl)-1-cyclopropyl-9-methyl-4-oxo-4H-quinolizine-3-carboxylate] |  |  | 0.125 µg/mL |  |
| Cc1c(-c2ccc3c(c2)CCN3)ccn2c(=O)c(C(=O)[O-])cc(C3CC3)c12.[K+] [Compound 77K salt, potassium 8-(indolin-5-yl)-1-cyclopropyl-9-methyl-4-oxo-4H-quinolizine-3-carboxylate] |  |  | 0.125 µg/mL |  |
| Cc1cn2c(=O)c(C(=O)[O-])cc(C3CC3)c2c(C)c1-c1ccc2[nH]ncc2c1.[K+] [Compound 88K salt, potassium 8-(1H-indazol-5-yl)-1-cyclopropyl-7,9-dimethyl-4-oxo-4H-quinolizine-3-carboxylate] |  |  | 0.125 µg/mL |  |
| Cc1c(-c2ccc(N3CCNCC3)nc2)ccn2c(=O)c(C(=O)[O-])cc(C3CC3)c12.[K+] [Compound 84K salt, potassium 8-(6-(piperazin-1-yl)pyridin-3-yl)-1-cyclopropyl-9-methyl-4-oxo-4H-quinolizine-3-carboxylate] | 0.125 µg/mL | 0.125 µg/mL |  |  |
| COc1c(-c2ccc3[nH]ncc3c2)ccn2c(=O)c(C(=O)[O-])cc(C3CC3)c12.[K+] [Compound 90K salt, potassium 8-(1H-indazol-5-yl)-1-cyclopropyl-9-methoxy-4-oxo-4H-quinolizine-3-carboxylate] |  |  | 0.125 µg/mL |  |

— US20190105367A1, “ANTIMICROBIAL 4-OXOQUINOLIZINES” (Emergent Product Development Gaithersburg Inc., priority 2011, published 2019)
